PubChem BioAssay AID1918933 (Molecular Pharmacology Branch, DTP, NCI, 2023)

Tested on: 186277-243-T-J2-PDC complex spheroid viability
Experiment: Anticancer human tumor 186277-243-T-J2-PDC patient-derived colon adenocarcinoma cell line growth inhibition
Details: for IC50: curve of first compound; for viability, T/C: stronger effect = lower value
How it was run: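 Drug combinations with the LSD1 inhibitor iadademstat tested on tumor cells co-cultured as spheroids with endothelial cells and mesenchymal stem cells. Concentrations descended in half-log increments from clinical Cmax or 10 microM.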

[1] = second compound 0.1 µM, first compound 0.000316 µM
[2] = second compound 0.1 µM, first compound 0.001 µM
[3] = second compound 0.1 µM, first compound 0.00316 µM
[4] = second compound 0.1 µM, first compound 0.01 µM
[5] = second compound 0.1 µM, first compound 0.0316 µM
[6] = second compound 0.1 µM, first compound 0.1 µM
[7] = second compound 0.316 µM, first compound 0.000316 µM
[8] = second compound 0.316 µM, first compound 0.001 µM
[9] = second compound 0.316 µM, first compound 0.00316 µM
[10] = second compound 0.316 µM, first compound 0.01 µM
[11] = second compound 0.316 µM, first compound 0.0316 µM
[12] = second compound 0.316 µM, first compound 0.1 µM
[13] = second compound 1 µM, first compound 0.000316 µM
[14] = second compound 1 µM, first compound 0.001 µM
[15] = second compound 1 µM, first compound 0.00316 µM
[16] = second compound 1 µM, first compound 0.01 µM
[17] = second compound 1 µM, first compound 0.0316 µM
[18] = second compound 1 µM, first compound 0.1 µM
[19] = second compound 3.16 µM, first compound 0.000316 µM
[20] = second compound 3.16 µM, first compound 0.001 µM
[21] = second compound 3.16 µM, first compound 0.00316 µM
[22] = second compound 3.16 µM, first compound 0.01 µM
[23] = second compound 3.16 µM, first compound 0.0316 µM
[24] = second compound 3.16 µM, first compound 0.1 µM
[25] = second compound 10 µM, first compound 0.000316 µM
[26] = second compound 10 µM, first compound 0.001 µM
[27] = second compound 10 µM, first compound 0.00316 µM
[28] = second compound 10 µM, first compound 0.01 µM
[29] = second compound 10 µM, first compound 0.0316 µM
[30] = second compound 10 µM, first compound 0.1 µM
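Note: 7 day exposure to compounds.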
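Throughout, for viability, T/C: 100% = DMSO vehicle control viability.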

| SMILES | IC50 (second compound 0.1 µM) [nM] | IC50 (second compound 0.316 µM) [nM] | IC50 (second compound 1 µM) [nM] | IC50 (second compound 3.16 µM) [nM] | IC50 (second compound 10 µM) [nM] | viability, T/C [3] [%] | viability, T/C [4] [%] | viability, T/C [5] [%] | viability, T/C [6] [%] | viability, T/C [9] [%] | viability, T/C [10] [%] | viability, T/C [11] [%] | viability, T/C [12] [%] | viability, T/C [15] [%] | viability, T/C [16] [%] | viability, T/C [17] [%] | viability, T/C [18] [%] | viability, T/C [21] [%] | viability, T/C [22] [%] | viability, T/C [23] [%] | also measured |
| --- | --- | --- | --- | --- | --- | --- | --- | --- | --- | --- | --- | --- | --- | --- | --- | --- | --- | --- | --- | --- | --- |
| CC(C)CC(NC(=O)C(Cc1ccccc1)NC(=O)c1cnccn1)B(O)O (stereo not given) + NC1CCC(NC2CC2c2ccccc2)CC1 | 3.72 | 3.94 | 3.67 | 4.54 | 3.95 | 58.1 | 0.46 | 0.13 | 0.28 | 61.5 | 0.8 | 0.31 | 0.65 | 57.4 | 0.43 | 0.44 | 0.16 | 72.7 | 0.98 | 0.25 | viability, T/C [1]: 103%; viability, T/C [2]: 107%; viability, T/C [7]: 113%; viability, T/C [8]: 107%; viability, T/C [13]: 111%; viability, T/C [14]: 107%; viability, T/C [19]: 107%; viability, T/C [20]: 124%; viability, T/C [24]: 0.11%; viability, T/C [25]: 111%; viability, T/C [26]: 98.5%; viability, T/C [27]: 62%; viability, T/C [28]: 0.43%; viability, T/C [29]: 0.16%; viability, T/C [30]: 0.43% |
| CC(C)CC(NC(=O)CNC(=O)c1cc(Cl)ccc1Cl)B1OC(=O)CC(CC(=O)O)(C(=O)O)O1 (stereo not given) + NC1CCC(NC2CC2c2ccccc2)CC1 | 20.5 | 20.3 | 18.6 | 19.6 | 19.5 | 115 | 98.8 | 20.6 | 1.64 | 117 | 96.6 | 20.7 | 1.44 | 111 | 87.3 | 18.3 | 1.22 | 110 | 96.5 | 17.1 | viability, T/C [1]: 102%; viability, T/C [2]: 119%; viability, T/C [7]: 118%; viability, T/C [8]: 114%; viability, T/C [13]: 113%; viability, T/C [14]: 114%; viability, T/C [19]: 112%; viability, T/C [20]: 107%; viability, T/C [24]: 1.04%; viability, T/C [25]: 105%; viability, T/C [26]: 111%; viability, T/C [27]: 111%; viability, T/C [28]: 98.5%; viability, T/C [29]: 15.1%; viability, T/C [30]: 1.05% |
| COc1cc(Nc2ncc3c(n2)-c2ccc(Cl)cc2C(c2c(F)cccc2OC)=NC3)ccc1C(=O)O + NC1CCC(NC2CC2c2ccccc2)CC1 | 13 | 11.2 | 10.4 | 10.6 | 13.7 | 131 | 59.2 | 19.2 | 0.36 | 119 | 54.1 | 11.7 | 0.19 | 109 | 51.1 | 11.3 | 0.14 | 120 | 51.8 | 13.2 | viability, T/C (second compound 0.1 µM, first compound 0.316 µM): 0.06%; viability, T/C (second compound 0.1 µM, first compound 1 µM): 0.02%; viability, T/C (second compound 0.316 µM, first compound 0.316 µM): 0.05%; viability, T/C (second compound 0.316 µM, first compound 1 µM): 0.01%; viability, T/C (second compound 1 µM, first compound 0.316 µM): 0.02%; viability, T/C (second compound 1 µM, first compound 1 µM): 0.01%; viability, T/C [24]: 0.12%; viability, T/C (second compound 3.16 µM, first compound 0.316 µM): 0.04%; viability, T/C (second compound 3.16 µM, first compound 1 µM): 0.01%; viability, T/C [27]: 128%; viability, T/C [28]: 58.6%; viability, T/C [29]: 27.7%; viability, T/C [30]: 0.81%; viability, T/C (second compound 10 µM, first compound 0.316 µM): 0.06%; viability, T/C (second compound 10 µM, first compound 1 µM): 0.02% |
